Four compounds from patent US10167262B2, “Herbicidal substituted 3-arylpyrazoles” (FMC CORPORATION, priority 2014, dated 2019) can be followed below.

Each structure is given as a SMILES string.

Common to all, as to format: in vivo
Test [1] concerns barnyardgrass (Echinochloa crus-galli). The test is described as follows: Test C pre-/postemergence greenhouse test, plant response rating 0-100. The procedure, abridged:
(§1)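 Two application timings: preemergence onto seeded loam/sand soil and postemergence onto plants at the 1–4 leaf stage (2–18 cm) in peat/vermiculite medium. Formulation: non-phytotoxic solvent with surfactant. Read-out: visual control rating, 0–100, at 13–15 days after treatment.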

Test [2] concerns oilseed rape (Brassica napus). The test is described as above. Summed up:
as §1

Test [3] has as its system waterhemp (common waterhemp, Amaranthus rudis). The description is as above. The procedure, abridged: as §1
For test [4], the system named is goosegrass (Eleusine indica). The test can be described thus: Test E pre-/postemergence greenhouse test, plant response rating 0-100. The conditions noted are these: Preemergence, scale 0 to 100.
The subject of test [5] is ragweed (common ragweed, Ambrosia elatior). Described as above. The conditions noted are these: Preemergence, scale 0 to 100. Summed up: (§2)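 Each species was tested both preemergence, with chemicals sprayed onto freshly planted silt loam, and postemergence, on plants 2 to 18 cm tall in a peat-based medium; the vehicle was a non-phytotoxic solvent mixture with surfactant. After 14 to 21 days in the greenhouse, growth was visually compared with controls and scored 0–100.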

Test [6] concerns smartweed (ladysthumb smartweed, Polygonum persicaria). The test is described as above. The conditions noted are these: Postemergence, scale 0 to 100.
Test [7] deals with surinam grass (Brachiaria decumbens). The description is as above. As to conditions: Preemergence, scale 0 to 100. The procedure, abridged: as §2
For test [8], the system named is velvetleaf (Abutilon theophrasti). Described as above. The conditions noted are these: Preemergence, scale 0 to 100. The procedure, abridged:
as §2

Test [9] deals with smartweed (ladysthumb smartweed, Polygonum persicaria). The description is as above. The conditions noted are these: scale 0 to 100; for Smartweed plant response rating: Preemergence.
In test [10] the test system is bermudagrass (Cynodon dactylon). The test can be described thus: Test C postemergence greenhouse test, plant response rating 0-100. As to conditions: for Plant response rating, Bermudagrass: scale 0 to 100. Summed up: (§3)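 First, plants were raised in a sphagnum peat, vermiculite and nutrient medium to 1–4 leaves. Next, formulated test compounds were applied over the foliage. Finally, after 13–15 greenhouse days, injury was compared with controls and scored 0–100.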

Test [11] concerns cocklebur (common cocklebur, Xanthium strumarium). The description is as above. As to conditions: for Plant response rating, Cocklebur: scale 0 to 100. The procedure, abridged: as §3
The test system of test [12] is surinam grass (Brachiaria decumbens). Described as above. As to conditions: for Plant response rating, Surinam Grass: scale 0 to 100. The procedure, abridged: as §3
Where [13] appears, read: Postemergence, 250 g ai/ha, scale 0 to 100.

In the case of `O=C(c1ccccc1)c1cn(S(=O)(=O)CCl)nc1-c1cc(Cl)cc(Cl)c1` [Compound 1], the “Plant response rating (0 to 100), Barnyardgrass” value in test [1] (Postemergence, 31 g ai/ha) is listed as 0; in test [1] (Postemergence, 62 g ai/ha), 0. Further, the “Plant response rating, Barnyardgrass” value in [1] (Postemergence, 125 g ai/ha, scale 0 to 100) is on record as 0; in test [1] (setting [13]), 0. Moreover, the “Plant response rating (0 to 100), Oilseed Rape” value in [2] (Postemergence, 62 g ai/ha) stood at 50; in test [2] (Postemergence, 125 g ai/ha), 80. Moreover, in [2] (setting [13]), the “Plant response rating, Oilseed Rape” value is recorded as 95. In addition, the “Plant response rating (0 to 100), Waterhemp” value in test [3] (Postemergence, 62 g ai/ha) stood at 90; in test [3] (Postemergence, 125 g ai/ha), 90. In addition, in test [3] (setting [13]), the “Plant response rating, Waterhemp” value came out at 98. The “Goosegrass plant response rating” value in test [4] (31 g ai/ha), in test [4] (62 g ai/ha), in [4] (125 g ai/ha), in test [4] (250 g ai/ha) and in test [4] (500 g ai/ha) was 0 each time. The “Ragweed plant response rating” value in test [5] (31 g ai/ha) was 50; in test [5] (250 g ai/ha), 75; in test [5] (500 g ai/ha), 75. In addition, the “Plant response rating, Smartweed” value in test [6] (31 g ai/ha) is reported as 0; in [6] (62 g ai/ha), 35; in test [6] (125 g ai/ha) it was 50; in test [6] (250 g ai/ha), 75; in test [9] (Postemergence, 500 g ai/ha) it was 85. Also, the “Surinam Grass plant response rating” value in test [7] (31 g ai/ha), in test [7] (62 g ai/ha), in test [7] (125 g ai/ha), in test [7] (250 g ai/ha) and in test [7] (500 g ai/ha) was 0 each time. Also, the “Velvetleaf plant response rating” value amounted to 35 in test [8] (31 g ai/ha); 40 in [8] (62 g ai/ha); 50 in test [8] (125 g ai/ha); 35 in test [8] (250 g ai/ha); 50 in [8] (500 g ai/ha). The “Smartweed plant response rating” value in test [9] (31 g ai/ha) stood at 0; in test [9] (125 g ai/ha), 98; in [9] (250 g ai/ha), 98; in test [9] (500 g ai/ha), 98.
In the case of `Fc1cccc(NN=C(c2ccccc2)c2c[nH]nc2-c2cc(Cl)cc(Cl)c2)c1` [Compound 58], the “Plant response rating (0 to 100), Bermudagrass” value in test [10] (62 g ai/ha) and in [10] (125 g ai/ha) was 0 in each case. The figures for the “Plant response rating, Bermudagrass” value in [10] (250 g ai/ha) and in [10] (500 g ai/ha) were 0 and 10, respectively. In addition, the “Plant response rating (0 to 100), Cocklebur” value in [11] (62 g ai/ha) is listed as 60; in test [11] (125 g ai/ha) it was 75. The figures for the “Plant response rating, Cocklebur” value in [11] (250 g ai/ha) and in test [11] (500 g ai/ha) were 80 and 95, respectively. The “Plant response rating (0 to 100), Surinam Grass” value in [12] (62 g ai/ha) and in test [12] (125 g ai/ha) was 0 each time. In addition, the “Plant response rating, Surinam Grass” value in [12] (250 g ai/ha) and in test [12] (500 g ai/ha) was 0 in each case. For the same compound, the “Plant response rating, Smartweed” value is reported as 0 in test [6] (31 g ai/ha) and 50 in [6] (125 g ai/ha).
As to `C=CCn1cc(C(=O)c2ccccc2)c(-c2cc(Cl)cc(Cl)c2)n1` [Compound 60], the “Plant response rating (0 to 100), Bermudagrass” value was 0 in [10] (31 g ai/ha), 5 in test [10] (62 g ai/ha) and 5 in test [10] (125 g ai/ha). The “Plant response rating, Bermudagrass” value in [10] (250 g ai/ha) was 5. Further, the figures for the “Plant response rating (0 to 100), Cocklebur” value in test [11] (31 g ai/ha), in [11] (62 g ai/ha) and in [11] (125 g ai/ha) were 10, 15 and 20, respectively. The “Plant response rating, Cocklebur” value in test [11] (250 g ai/ha) was found to be 50. The “Plant response rating (0 to 100), Surinam Grass” value in test [12] (62 g ai/ha) and in [12] (125 g ai/ha) was 0 in each case. Also, the “Plant response rating, Surinam Grass” value in test [12] (250 g ai/ha) is 5. For the same compound, the “Plant response rating, Smartweed” value in test [6] (31 g ai/ha), in test [6] (62 g ai/ha), in test [6] (125 g ai/ha) and in test [6] (250 g ai/ha) was 0 each time.
For `Cn1cc(C(=O)c2ccccc2)c(-c2cc(Cl)cc(Cl)c2)n1` [Compound 54, [3-(3,5-dichlorophenyl)-1-methyl-1H-pyrazol-4-yl]phenylmethanone], the “Plant response rating, Barnyardgrass” value in test [1] (Preemergence, 62 g ai/ha) amounted to 0; in [1] (Preemergence, 125 g ai/ha), 0; in test [1] (Preemergence, 250 g ai/ha) it was 0; in test [1] (Preemergence, 500 g ai/ha), 0. For the same compound, the “Plant response rating, Oilseed Rape” value in test [2] (Preemergence, 62 g ai/ha) stood at 0; in [2] (Preemergence, 125 g ai/ha) it was 0; in test [2] (Preemergence, 250 g ai/ha), 0; in test [2] (Preemergence, 500 g ai/ha) it was 5. Moreover, the “Plant response rating, Waterhemp” value in test [3] (Preemergence, 62 g ai/ha) worked out at 90; in [3] (Preemergence, 125 g ai/ha) it was 95; in test [3] (Preemergence, 250 g ai/ha), 98; in [3] (Preemergence, 500 g ai/ha), 100. Further, the “Plant response rating (0 to 100), Bermudagrass” value in test [10] (31 g ai/ha), in test [10] (62 g ai/ha) and in test [10] (125 g ai/ha) was 0 throughout. Also, in test [10] (250 g ai/ha), the “Plant response rating, Bermudagrass” value is on record as 0. Moreover, the “Plant response rating (0 to 100), Cocklebur” value in [11] (31 g ai/ha), in test [11] (62 g ai/ha) and in [11] (125 g ai/ha) was 0 throughout. In [11] (250 g ai/ha), the “Plant response rating, Cocklebur” value was found to be 0. In addition, the “Plant response rating (0 to 100), Surinam Grass” value in test [12] (62 g ai/ha) and in test [12] (125 g ai/ha) was 0 each time. In addition, in test [12] (250 g ai/ha), the “Plant response rating, Surinam Grass” value is 0. Also, the “Ragweed plant response rating” value in test [5] (125 g ai/ha) is given as 35; in [5] (250 g ai/ha) it was 62. Also, in [6] (250 g ai/ha), the “Plant response rating, Smartweed” value is reported as 0. In addition, the “Velvetleaf plant response rating” value in test [8] (125 g ai/ha) came to 87; in [8] (250 g ai/ha) it was 78. For the same compound, the “Smartweed plant response rating” value in test [9] (125 g ai/ha) and in test [9] (250 g ai/ha) was 0 throughout.
